Patent US8049035B2, “Crystalline potassium salt of lipoxin A4 analogs” (Bayer Pharma AG, priority 2006, dated 2011)
Where a name gives a salt, the structure may show the parent alone.

Experiments:
Type in all cases: physicochemical
[1] = Salt screening assays of the acid (IIa): stability of the salts
Excerpt: The following describes the salt screening assays in more detail:
Many inorganic cations were investigated to determine their ability to form a stable crystalline salt of the acid (IIa), including potassium, sodium, calcium, aluminium, magnesium, lithium, and zinc.
Several organic amines were investigated, including N-methylglucamine, diethanolamine, ethylenediamine, choline, lysine, and arginine.
In addition to the foregoing, it was investigated to form a mixed salt of the acid of Formula (IIa) with polyvalent inorganic cations and organic acids.
In general, the salt screening assay included the variability of the following different test parameters:
i) Type of cation-compound utilized (e.g., as carbonates, hydroxides, methylates, ethylates).
ii) Type of solvent utilized.
iii) Specific addition or exclusion of water (to assist the formation of hydrates or anhydrates).
iv) Type of crystallization utilized (cooling crystallization, antisolvent crystallization, or evaporation crystallization, and combinations thereof).
v) Type of screening (manual screening as well as high throughput screening).

[2] = Chemical stability of solid state forms under stress at 40° C./75% rH over 4 weeks (HPLC purity); conditions: for HPLC-purity: 40° C./75% RH; for chemical stability under stress (in words): 40° C./75% rH
Procedure: The chemical stability of the anhydrate and the monohydrate of the potassium salt of Formula (Ia) of the invention as well as the dehydrated form I of the potassium salt (Ia) of the invention were assessed by comparing the stability under stress at 40° C./75% rH over a period of 4 weeks.

[3] = Dynamic vapor sorption / hygroscopicity studies (automated water sorption analyzer); conditions: 25° C.; for relative humidity up to which the form is stable: sorption cycle
Procedure: The transformation of the monohydrate to the dihydrate form and vice versa occurs quickly and is well defined at 25° C. and at 40° C. This was shown by dynamic vapor sorption investigations. For example, during pre-drying of the monohydrate at 25° C. and 0% relative humidity, 4.0% water is released from the monohydrate. […] Between 20% and 40% relative humidity, one mole of water is absorbed, resulting in the formation of the monohydrate. The monohydrate is stable up to approximately 50% relative humidity and then is transformed into the dihydrate by absorption of a second mole of water between 50% and 60% relative humidity. The dihydrate is the stable form up to 98% relative humidity at 25° C. During the desorption cycle between 40% and 50% relative humidity, the transformation into the monohydrate takes place. The formed monohydrate is existent up to 10% relative humidity. Between 0% and 10% relative humidity the dehydration of the monohydrate to the dehydrated form II occurs. No significant differences between the two cycles were observed.
The hygroscopicity with respect to the transformation of the monohydrate and dihydrate was re-investigated between 45% and 55% relative humidity using smaller steps for the relative humidity. […] At 40° C. the reversible transformation between the monohydrate and the dihydrate is between 57% and 59% relative humidity, approximately 10% higher than at 25° C.
Also, the transformation of the anhydrate form of the potassium salt (Ia) to the hydrate form was shown by dynamic vapor sorption investigations at 25° C. Up to 40% relative humidity the anhydrate was stable. Between 40% and 60% relative humidity approximately two moles of water are absorbed, resulting in the formation of the dihydrate.
Data collection for the hygroscopicity studies was carried out in an automated water sorption analyzer. Approximately 20 mg of the investigated solid state form of the crystalline potassium salt (Ia) was exposed to a continuous flow of nitrogen with predetermined and constant relative humidity. The rate of sweep gas was set at 200 cm^3/min. For a basic assay, two full cycles (sorption/desorption) were measured at 25° C. The measurement was started at 0% relative humidity in order to remove surface water. Once the constant mass was achieved, the next humidity was automatically set. The water sorption/desorption was investigated in steps of 10% between 0% and 90% relative humidity under the criteria for initiation of the first step as set forth herein. Additionally, the sorption at about 98% relative humidity was investigated. Data was acquired using the DVSWin software. […]

Row | Structure (SMILES) | HPLC-purity ([2]; 0 weeks (start)) | HPLC-purity ([2]; 2 weeks) | HPLC-purity ([2]; 4 weeks) | chemical stability under stress (in words) ([2]; 4 weeks) | relative humidity up to which the form is stable [3] | water released during pre-drying ([3]; 0% relative humidity, gives dehydrated form II) | stability compared with other salts and the free acid (in words) [1]
1 | O=C(O)COC[C@H](O)[C@H](O)/C=C/C=C/C#C/C=C/[C@H](O)COc1ccc(F)cc1 [(Ia), potassium 2-((2S,3R,4E,6E,10E,12S)-13-(4-fluorophenoxy)-2,3,12-trihydroxytrideca-4,6,10-trien-6-ynyloxy)acetate] | – | – | – | – | – | – | substantially more stable than every other salt prepared
2 | O=C(O)COC[C@H](O)[C@H](O)/C=C/C=C/C#C/C=C/[C@H](O)COc1ccc(F)cc1 [K-salt, dehydrated form I, potassium 2-((2S,3R,4E,6E,10E,12S)-13-(4-fluorophenoxy)-2,3,12-trihydroxytrideca-4,6,10-trien-6-ynyloxy)acetate] | 97.8% | 97.1% | 95.3% | – | – | – | –
3 | O=C(O)COC[C@H](O)[C@H](O)/C=C/C=C/C#C/C=C/[C@H](O)COc1ccc(F)cc1 [dihydrate, potassium 2-((2S,3R,4E,6E,10E,12S)-13-(4-fluorophenoxy)-2,3,12-trihydroxytrideca-4,6,10-trien-6-ynyloxy)acetate] | – | – | – | – | up to 98 % relative humidity | – | –

Now from value to compound, other results behind:

Row | HPLC-purity ([2]; 0 weeks (start)) | HPLC-purity ([2]; 2 weeks) | HPLC-purity ([2]; 4 weeks) | chemical stability under stress (in words) ([2]; 4 weeks) | relative humidity up to which the form is stable [3] | water released during pre-drying ([3]; 0% relative humidity, gives dehydrated form II) | Structure (SMILES) | stability compared with other salts and the free acid (in words) [1]
4 | 99.6% | 99.7% | 99.7% | no sign of degradation | Up to 40 % relative humidity | – | O=C(O)COC[C@H](O)[C@H](O)/C=C/C=C/C#C/C=C/[C@H](O)COc1ccc(F)cc1 [K-salt, Anhydrate, potassium 2-((2S,3R,4E,6E,10E,12S)-13-(4-fluorophenoxy)-2,3,12-trihydroxytrideca-4,6,10-trien-6-ynyloxy)acetate] | –
5 | 99.7% | 99.6% | 99.7% | no sign of degradation | approximately 50 % relative humidity | 4.0% | O=C(O)COC[C@H](O)[C@H](O)/C=C/C=C/C#C/C=C/[C@H](O)COc1ccc(F)cc1 [K-salt, Monohydrate, potassium 2-((2S,3R,4E,6E,10E,12S)-13-(4-fluorophenoxy)-2,3,12-trihydroxytrideca-4,6,10-trien-6-ynyloxy)acetate] | –
